According to PMC5896380, “Selective imaging of cathepsin L in breast cancer by fluorescent activity-based probes” (Chemical Science, 2018):
Like-named read-outs stand apart in the source and are kept apart here. Non-standard residues stand in square brackets, D forms with d. *: point of attachment. Phe(F5) = N[C@@H](Cc1c(F)c(F)c(F)c(F)c1F)C(=O)O; Phe(3,4-F2) = N[C@@H](Cc1ccc(F)c(F)c1)C(=O)O; Phe(3-Cl) = N[C@@H](Cc1cccc(Cl)c1)C(=O)O; Phe(2-Cl) = N[C@@H](Cc1ccccc1Cl)C(=O)O; ACC = NC(=O)Cc1cc(=O)oc2cc(N*)ccc12; Orn = NCCC[C@H](N)C(=O)O; Dab = NCC[C@H](N)C(=O)O; Bn = c1ccc(C*)cc1

Tests used:
Assay type in all cases: biochemical
[1] = molecular target: T1, cathepsin L (Homo sapiens, UniProt P07711); experiment: Kinetic parameters of ACC substrates with cathepsin L; settings: for kcat/KM Cath-L: Fig. 5B, triplicate
T1 construct: made in house
T1 sequence (P07711 114-333): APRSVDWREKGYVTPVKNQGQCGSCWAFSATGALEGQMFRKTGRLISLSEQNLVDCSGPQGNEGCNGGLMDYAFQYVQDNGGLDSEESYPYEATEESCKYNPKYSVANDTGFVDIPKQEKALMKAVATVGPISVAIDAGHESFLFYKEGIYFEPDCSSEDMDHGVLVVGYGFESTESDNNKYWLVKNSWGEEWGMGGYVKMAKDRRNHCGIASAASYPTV
Procedure: (§1) All kinetic experiments were performed using fMax (Molecular Devices) and CLARIOStar (BMG LABTECH) spectrofluorimeters operating in kinetic mode using 96-well plates. ACC-labeled substrates were screened using 355 nm and 460 nm wavelengths (excitation and emission, respectively). […] The buffer was prepared at room temperature and the enzyme kinetic studies were performed at 37 °C.
(§2) Classic substrate velocity plots were analyzed according to Michaelis–Menten kinetics and a detailed protocol for the determination of kinetic parameters for ACC-tagged substrates is found elsewhere.[56] […] Experiments were repeated at least three times and results are presented as an average. The SDs were below 15%.

[2] = molecular target: T2, cathepsin S (Homo sapiens, UniProt P25774); experiment: Kinetic parameters of ACC substrates with cathepsin S; settings: for kcat/KM Cath-S: Fig. 5B, pH 5.5, 37 °C, cathepsin S 5–20 nM, triplicate, SD below 15%
T2 construct: made in house
T2 sequence (P25774 115-331): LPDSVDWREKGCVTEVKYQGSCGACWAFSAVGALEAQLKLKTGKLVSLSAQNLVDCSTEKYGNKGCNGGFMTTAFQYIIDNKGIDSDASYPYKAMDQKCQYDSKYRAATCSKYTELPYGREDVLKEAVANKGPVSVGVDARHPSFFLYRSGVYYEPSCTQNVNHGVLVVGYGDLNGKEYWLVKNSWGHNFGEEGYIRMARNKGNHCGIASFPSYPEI
Procedure: as §1, §2

[3] = molecular target: T3, cathepsin V (Homo sapiens, UniProt O60911); experiment: Kinetic parameters of ACC substrates with cathepsin V; settings: for kcat/KM Cath-V: Fig. 5B, pH 5.5, 37 °C, cathepsin V 10–20 nM, triplicate, SD below 15%
T3 construct: made in house
T3 sequence (O60911 114-334): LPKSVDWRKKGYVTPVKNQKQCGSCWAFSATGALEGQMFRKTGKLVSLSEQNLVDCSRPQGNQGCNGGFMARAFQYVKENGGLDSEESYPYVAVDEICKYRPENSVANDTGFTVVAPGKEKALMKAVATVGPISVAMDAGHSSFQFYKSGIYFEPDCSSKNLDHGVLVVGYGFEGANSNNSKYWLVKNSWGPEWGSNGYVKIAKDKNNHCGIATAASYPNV
Procedure: as §1, §2

[4] = molecular target: T4, cathepsin K (Homo sapiens, UniProt P43235); experiment: Kinetic parameters of ACC substrates with cathepsin K; settings: for kcat/KM Cath-K: Fig. 5B, pH 5.5, 37 °C, cathepsin K 5–20 nM, triplicate, SD below 15%
T4 construct: made in house
T4 sequence (P43235 115-329): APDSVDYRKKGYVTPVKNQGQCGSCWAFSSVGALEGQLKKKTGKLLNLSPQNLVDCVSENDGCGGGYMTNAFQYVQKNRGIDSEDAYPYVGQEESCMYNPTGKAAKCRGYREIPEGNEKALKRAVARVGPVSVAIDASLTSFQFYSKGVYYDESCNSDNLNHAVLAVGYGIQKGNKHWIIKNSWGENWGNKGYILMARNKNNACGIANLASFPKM
Procedure: as §1, §2

[5] = molecular target: T5, cathepsin B (Homo sapiens, UniProt P07858); experiment: Kinetic parameters of ACC substrates with cathepsin B; settings: for kcat/KM Cath-B: Fig. 5B, pH 5.5, 37 °C, cathepsin B 4–15 nM, triplicate, SD below 15%
T5 construct: made in house
Procedure: as §1, §2

[6] = Fig. 4B, ACC substrates, 100 mM sodium acetate, 100 mM NaCl, 10 mM DTT, 1 mM EDTA, pH 5.5, 37 °C, cathepsin L 0.1–0.5 nM, average of at least three, SD below 15%
[7] = Table S2, cathepsin L, four independent experiments, S.D. below 15%
[8] = pH 5.5, 37 °C, cathepsin L 0.1–0.5 nM, SD below 15%
[9] = Table S7, four independent experiments, S.D. below 15%

| Substance | kcat/KM [1, 6] | kcat/KM Cath-S [2] | kcat/KM Cath-L [1, 8] | kcat/KM Cath-V [3] | kcat/KM Cath-K [4] | kcat/KM Cath-B [5] | also measured |
| --- | --- | --- | --- | --- | --- | --- | --- |
| Ac-Dap-Orn-Phe(3-Cl)-Nle(OBzl)-ACC | 47,400,000 M^-1s^-1 |  |  |  |  |  | kcat [1, 7]: 124 s⁻¹; kcat/KM [1, 7]: 47,400,000 M-1s-1; Km ([1]; Table S2, cathepsin L, four independent experiments, S.D. below 15%, read-out: KM): 2.63 µM; hydrolysis by cathepsin L relative to Ac-His-Arg-Phe-Arg-ACC substrate ([1]; kcat/KM compared with reference substrate): ~4 times |
| Ac-H[dK][Phe(F5)]R-{ACC} (SMILES CC(=O)N[C@@H](Cc1c[nH]cn1)C(=O)N[C@H](CCCCN)C(=O)N[C@@H](Cc1c(F)c(F)c(F)c(F)c1F)C(=O)N[C@@H](CCCNC(=N)N)C(=O)Nc1ccc2c(CC(N)=O)cc(=O)oc2c1) |  | < 10 M⁻¹ s⁻¹ | 715,000 M^-1s^-1 | 1,010 M^-1s^-1 | 29 M⁻¹ s⁻¹ | 175 M⁻¹ s⁻¹ |  |
| Ac-H[dL][Phe(F5)]R-{ACC} (SMILES CC(=O)N[C@@H](Cc1c[nH]cn1)C(=O)N[C@H](CC(C)C)C(=O)N[C@@H](Cc1c(F)c(F)c(F)c(F)c1F)C(=O)N[C@@H](CCCNC(=N)N)C(=O)Nc1ccc2c(CC(N)=O)cc(=O)oc2c1) |  | < 10 M⁻¹ s⁻¹ | 405,900 M^-1s^-1 | 353 M⁻¹ s⁻¹ | < 10 M⁻¹ s⁻¹ | 135 M⁻¹ s⁻¹ |  |
| Ac-H[dQ][Phe(F5)]R-{ACC} (SMILES CC(=O)N[C@@H](Cc1c[nH]cn1)C(=O)N[C@H](CCC(N)=O)C(=O)N[C@@H](Cc1c(F)c(F)c(F)c(F)c1F)C(=O)N[C@@H](CCCNC(=N)N)C(=O)Nc1ccc2c(CC(N)=O)cc(=O)oc2c1) |  | < 10 M⁻¹ s⁻¹ | 336,900 M^-1s^-1 | 1,070 M^-1s^-1 | < 10 M⁻¹ s⁻¹ | 130 M⁻¹ s⁻¹ |  |
| Ac-H[dT][Phe(F5)]R-{ACC} (SMILES CC(=O)N[C@@H](Cc1c[nH]cn1)C(=O)N[C@@H](C(=O)N[C@@H](Cc1c(F)c(F)c(F)c(F)c1F)C(=O)N[C@@H](CCCNC(=N)N)C(=O)Nc1ccc2c(CC(N)=O)cc(=O)oc2c1)[C@H](C)O) |  | < 10 M⁻¹ s⁻¹ | 729,200 M^-1s^-1 | 286 M⁻¹ s⁻¹ | < 10 M⁻¹ s⁻¹ | 94 M⁻¹ s⁻¹ | kcat/KM Cat S [2, 9]: < 10 M⁻¹ s⁻¹; kcat Cat L [1, 9]: 38.6 s⁻¹; Km ([1]; Table S7, four independent experiments, S.D. below 15%, read-out: KM Cat L): 53.1 µM; kcat Cat V [3, 9]: 0.0178 s⁻¹; kcat/KM Cat V [3, 9]: 286 M⁻¹ s⁻¹; Km ([3]; Table S7, four independent experiments, S.D. below 15%, read-out: KM Cat V): 61.4 µM; kcat/KM Cat K [4, 9]: < 10 M⁻¹ s⁻¹; kcat Cat B [5, 9]: 0.00673 s⁻¹; kcat/KM Cat B [5, 9]: 94 M⁻¹ s⁻¹; Km ([5]; Table S7, four independent experiments, S.D. below 15%, read-out: KM Cat B): 71.5 µM |
| Ac-H[dV]T(Bn)R-{ACC} (SMILES CC(=O)N[C@@H](Cc1c[nH]cn1)C(=O)N[C@@H](C(=O)N[C@H](C(=O)N[C@@H](CCCNC(=N)N)C(=O)Nc1ccc2c(CC(N)=O)cc(=O)oc2c1)[C@@H](C)OCc1ccccc1)C(C)C) |  | < 10 M⁻¹ s⁻¹ | 158,520 M^-1s^-1 | 424 M⁻¹ s⁻¹ | 130 M⁻¹ s⁻¹ | 480 M⁻¹ s⁻¹ |  |
| Ac-H[dV][Phe(2-Cl)]R-{ACC} (SMILES CC(=O)N[C@@H](Cc1c[nH]cn1)C(=O)N[C@@H](C(=O)N[C@@H](Cc1ccccc1Cl)C(=O)N[C@@H](CCCNC(=N)N)C(=O)Nc1ccc2c(CC(N)=O)cc(=O)oc2c1)C(C)C) |  | 2,760 M^-1s^-1 | 5,689,000 M^-1s^-1 | 11,600 M^-1s^-1 | 13,000 M^-1s^-1 | 1,360 M^-1s^-1 |  |
| Ac-H[dV][Phe(3,4-F2)]R-{ACC} (SMILES CC(=O)N[C@@H](Cc1c[nH]cn1)C(=O)N[C@@H](C(=O)N[C@@H](Cc1ccc(F)c(F)c1)C(=O)N[C@@H](CCCNC(=N)N)C(=O)Nc1ccc2c(CC(N)=O)cc(=O)oc2c1)C(C)C) |  | 580 M⁻¹ s⁻¹ | 6,031,000 M^-1s^-1 | 10,100 M^-1s^-1 | 1,010 M^-1s^-1 | 2,520 M^-1s^-1 |  |
| Ac-[Dab]R[Phe(3-Cl)]R-{ACC} (SMILES CC(=O)N[C@@H](CCN)C(=O)N[C@@H](CCCNC(=N)N)C(=O)N[C@@H](Cc1cccc(Cl)c1)C(=O)N[C@@H](CCCNC(=N)N)C(=O)Nc1ccc2c(CC(N)=O)cc(=O)oc2c1) | 31,960,000 M^-1s^-1 |  |  |  |  |  |  |
| Ac-[Dab][Orn][Phe(3-Cl)]R-{ACC} (SMILES CC(=O)N[C@@H](CCN)C(=O)N[C@@H](CCCN)C(=O)N[C@@H](Cc1cccc(Cl)c1)C(=O)N[C@@H](CCCNC(=N)N)C(=O)Nc1ccc2c(CC(N)=O)cc(=O)oc2c1) | 35,070,000 M^-1s^-1 |  |  |  |  |  |  |
